{
  "source": "paper PMC9944927",
  "about": "“Mutant structure of metabolic switch protein in complex with monomeric c-di-GMP reveals a potential mechanism of protein-mediated ligand dimerization” (Scientific Reports, 2023)",
  "key": {"SmbA [1]": {"target": "T1, SmbA (Caulobacter vibrioides, UniProt Q9A5E6)", "T1 construct": "gene CC_2504; SmbAwt, His6", "T1 sequence (Q9A5E6 1-296)": "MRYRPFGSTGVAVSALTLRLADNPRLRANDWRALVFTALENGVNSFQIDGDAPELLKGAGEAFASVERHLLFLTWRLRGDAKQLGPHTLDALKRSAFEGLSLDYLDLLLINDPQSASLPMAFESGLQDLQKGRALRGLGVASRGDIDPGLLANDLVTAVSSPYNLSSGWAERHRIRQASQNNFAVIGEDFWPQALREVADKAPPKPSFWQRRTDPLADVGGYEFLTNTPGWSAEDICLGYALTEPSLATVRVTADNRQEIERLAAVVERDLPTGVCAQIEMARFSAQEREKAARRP", "assay": "ITC (apparent Kd); AUC sedimentation shift", "assay_type": "binding"}, "SmbA [2]": {"target": "T2, SmbA (Caulobacter vibrioides, UniProt Q9A5E6, DEL198-215)", "T2 construct": "gene CC_2504; SmbA∆loop, partial loop 7 deletion (fragment 198–215 deleted), His6", "T2 sequence (Q9A5E6 with tags, fused parts or gaps DEL198-215)": "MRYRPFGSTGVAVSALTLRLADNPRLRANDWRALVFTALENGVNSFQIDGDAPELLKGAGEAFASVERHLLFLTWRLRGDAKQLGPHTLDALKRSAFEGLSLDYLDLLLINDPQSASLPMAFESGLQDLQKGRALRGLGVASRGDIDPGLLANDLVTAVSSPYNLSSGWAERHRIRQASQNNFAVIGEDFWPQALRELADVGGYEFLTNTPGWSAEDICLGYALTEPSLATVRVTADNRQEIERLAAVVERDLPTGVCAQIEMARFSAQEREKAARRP", "assay": "X-ray crystal structure at […] Å; ITC ([…] stoichiometry)", "assay_type": "binding"}},
  "data": [
    {"compound": "Nc1nc2c(ncn2[C@@H]2O[C@@H]3CO[P@](=O)(O)O[C@H]4[C@@H](O)[C@H](n5cnc6c(=O)[nH]c(N)nc65)O[C@@H]4CO[P@](=O)(O)O[C@H]3[C@H]2O)c(=O)[nH]1", "note": "[c-di-GMP]", "values": [
      {"measurement": "Kd", "setting": "SmbA [1]", "value": 300, "unit": "nM"},
      {"measurement": "Kd", "setting": "SmbA [2]", "value": 1800, "unit": "nM"}
    ]}
  ]
}
